Reference: ChEMBL document CHEMBL1201862, “PubChem BioAssay data set” (2004)
Calls of active or inactive are those of the source.

Assays:
H4 = assay: Luminescence Cell-Based Dose Response HTS to Identify Activators of 5'UTR Stem-Loop Driven Prion Protein mRNA Translation in H4 Neuroglioblastoma Cells. [Related pubchem assays: 1829 (Project Summary), 1814 (Primary HTS)]; assay type: functional; details: Homo sapiens
[1] = Luminescence Cell-Based Dose Confirmation HTS to Identify Activators of 5'UTR Stem-Loop Driven Alpha-Synuclein mRNA Translation in H4 Neuroglioblastoma Cells. [Related pubchem assays: 1829 (Project Summary), 1814 (Primary HTS)]; assay type: functional
HEK293 [2] = assay: membrane integrity loss in HEK cells – cell-based, fluorescence, cytotoxicity control for IDE activator project, dose response (AID 588440); assay type: functional; details: Homo sapiens;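 also: cytotoxicity by LDH release measuring loss of membrane integrity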
Insulin-degrading enzyme [3] = target: T1, Insulin-degrading enzyme (Homo sapiens, UniProt P14735); assay: cellular IDE activation of Abeta substrate cleavage – fluorescence polarization, HEK cells, dose response (AID 588439); assay type: functional, cell-based
T1 sequence (P14735 whole entry): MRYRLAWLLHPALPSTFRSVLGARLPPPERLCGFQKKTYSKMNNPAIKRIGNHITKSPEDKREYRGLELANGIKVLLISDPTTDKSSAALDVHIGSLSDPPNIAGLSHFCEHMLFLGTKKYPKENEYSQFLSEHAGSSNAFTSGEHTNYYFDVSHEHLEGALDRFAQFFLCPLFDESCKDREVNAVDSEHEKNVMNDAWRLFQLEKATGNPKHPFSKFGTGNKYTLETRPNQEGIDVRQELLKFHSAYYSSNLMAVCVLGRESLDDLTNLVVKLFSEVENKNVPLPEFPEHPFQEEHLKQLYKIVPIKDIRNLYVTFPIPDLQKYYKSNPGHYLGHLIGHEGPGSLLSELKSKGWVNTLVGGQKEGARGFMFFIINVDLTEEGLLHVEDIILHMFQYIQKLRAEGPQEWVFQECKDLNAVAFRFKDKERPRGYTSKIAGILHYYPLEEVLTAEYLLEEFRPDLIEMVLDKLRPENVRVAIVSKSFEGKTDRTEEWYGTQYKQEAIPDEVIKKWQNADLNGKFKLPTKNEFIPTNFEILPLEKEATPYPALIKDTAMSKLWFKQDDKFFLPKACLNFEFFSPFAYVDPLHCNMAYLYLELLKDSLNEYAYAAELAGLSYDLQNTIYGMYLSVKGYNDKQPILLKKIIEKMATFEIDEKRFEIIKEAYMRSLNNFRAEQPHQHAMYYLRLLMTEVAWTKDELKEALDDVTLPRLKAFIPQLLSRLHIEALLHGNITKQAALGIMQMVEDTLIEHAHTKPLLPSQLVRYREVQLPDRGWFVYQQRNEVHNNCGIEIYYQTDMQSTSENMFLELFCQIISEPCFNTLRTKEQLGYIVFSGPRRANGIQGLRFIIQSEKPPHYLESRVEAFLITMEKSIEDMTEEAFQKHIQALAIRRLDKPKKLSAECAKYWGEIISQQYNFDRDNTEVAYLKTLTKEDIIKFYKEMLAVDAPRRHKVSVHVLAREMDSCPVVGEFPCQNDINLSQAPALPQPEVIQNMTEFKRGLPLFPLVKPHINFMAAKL

[4] = Luminescence Cell-Based Dose Response HTS to Identify Activators of Luciferase Translation or Activity in H4 […] Cells. [Related pubchem assays: 1829 (Project Summary), 1814 (Primary HTS)]; assay type: functional
HEK293 [5] = assay: optical interference in Abeta FP readout, dose response, artefact control for IDE activator project, biochemical, fluorescence polarization (AID 588442); assay type: functional, cell-based; details: Homo sapiens
Insulin-degrading enzyme [6] = target: T1, Insulin-degrading enzyme; assay: recombinant IDE activation, cell-free – biochemical, fluorescence polarization, counter-screen for IDE activator project, dose response (AID 588681)
CHO = CHO cell viability loss, potency – luminescence, cytotoxicity control for TLR9-MyD88 binding inhibitor project, dose response (AID 588339); assay type: functional, cell-based, hamster; details: Cricetulus griseus;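 also: CHO cells stably coexpressing TLR9 and MyD88 fusions from primary screen; compound exposure lasted 48 hours before viability readout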
Beta Lactamase = Beta Lactamase (Pseudomonas aeruginosa, UniProt Q932Y6); assay: BLA reporter interference, concentration series – BLA reporter cells, FRET fluorescence, artefact control for TLR9-MyD88 binding inhibitor project, dose response (AID 588341); assay type: cell-based;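 also: cell based assay in CHO-K1 cells stably expressing beta-lactamase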
Beta Lactamase, sequence (Q932Y6 whole entry): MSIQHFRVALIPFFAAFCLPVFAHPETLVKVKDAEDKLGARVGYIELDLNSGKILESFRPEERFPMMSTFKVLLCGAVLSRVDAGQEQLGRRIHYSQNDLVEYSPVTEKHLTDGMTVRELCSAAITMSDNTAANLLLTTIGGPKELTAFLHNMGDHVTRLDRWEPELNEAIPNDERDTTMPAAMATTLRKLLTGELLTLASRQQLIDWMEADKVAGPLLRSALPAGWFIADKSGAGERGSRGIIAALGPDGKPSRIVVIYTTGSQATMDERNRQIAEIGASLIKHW

[7] = viability loss in THP-1 monocytes – THP-1 cells, cytotoxicity control for Vif-APOBEC3G degradation inhibitor project, dose response (AID 1117359); assay type: functional; details: THP-1
[8] = target: T2, Voltage-gated N-type calcium channel alpha-1B subunit/Amyloid beta A4 precursor protein-binding family A member 1 (Homo sapiens, UniProt Q00975+Q02410); assay type: protein assay
T2 sequence (Q00975 whole entry): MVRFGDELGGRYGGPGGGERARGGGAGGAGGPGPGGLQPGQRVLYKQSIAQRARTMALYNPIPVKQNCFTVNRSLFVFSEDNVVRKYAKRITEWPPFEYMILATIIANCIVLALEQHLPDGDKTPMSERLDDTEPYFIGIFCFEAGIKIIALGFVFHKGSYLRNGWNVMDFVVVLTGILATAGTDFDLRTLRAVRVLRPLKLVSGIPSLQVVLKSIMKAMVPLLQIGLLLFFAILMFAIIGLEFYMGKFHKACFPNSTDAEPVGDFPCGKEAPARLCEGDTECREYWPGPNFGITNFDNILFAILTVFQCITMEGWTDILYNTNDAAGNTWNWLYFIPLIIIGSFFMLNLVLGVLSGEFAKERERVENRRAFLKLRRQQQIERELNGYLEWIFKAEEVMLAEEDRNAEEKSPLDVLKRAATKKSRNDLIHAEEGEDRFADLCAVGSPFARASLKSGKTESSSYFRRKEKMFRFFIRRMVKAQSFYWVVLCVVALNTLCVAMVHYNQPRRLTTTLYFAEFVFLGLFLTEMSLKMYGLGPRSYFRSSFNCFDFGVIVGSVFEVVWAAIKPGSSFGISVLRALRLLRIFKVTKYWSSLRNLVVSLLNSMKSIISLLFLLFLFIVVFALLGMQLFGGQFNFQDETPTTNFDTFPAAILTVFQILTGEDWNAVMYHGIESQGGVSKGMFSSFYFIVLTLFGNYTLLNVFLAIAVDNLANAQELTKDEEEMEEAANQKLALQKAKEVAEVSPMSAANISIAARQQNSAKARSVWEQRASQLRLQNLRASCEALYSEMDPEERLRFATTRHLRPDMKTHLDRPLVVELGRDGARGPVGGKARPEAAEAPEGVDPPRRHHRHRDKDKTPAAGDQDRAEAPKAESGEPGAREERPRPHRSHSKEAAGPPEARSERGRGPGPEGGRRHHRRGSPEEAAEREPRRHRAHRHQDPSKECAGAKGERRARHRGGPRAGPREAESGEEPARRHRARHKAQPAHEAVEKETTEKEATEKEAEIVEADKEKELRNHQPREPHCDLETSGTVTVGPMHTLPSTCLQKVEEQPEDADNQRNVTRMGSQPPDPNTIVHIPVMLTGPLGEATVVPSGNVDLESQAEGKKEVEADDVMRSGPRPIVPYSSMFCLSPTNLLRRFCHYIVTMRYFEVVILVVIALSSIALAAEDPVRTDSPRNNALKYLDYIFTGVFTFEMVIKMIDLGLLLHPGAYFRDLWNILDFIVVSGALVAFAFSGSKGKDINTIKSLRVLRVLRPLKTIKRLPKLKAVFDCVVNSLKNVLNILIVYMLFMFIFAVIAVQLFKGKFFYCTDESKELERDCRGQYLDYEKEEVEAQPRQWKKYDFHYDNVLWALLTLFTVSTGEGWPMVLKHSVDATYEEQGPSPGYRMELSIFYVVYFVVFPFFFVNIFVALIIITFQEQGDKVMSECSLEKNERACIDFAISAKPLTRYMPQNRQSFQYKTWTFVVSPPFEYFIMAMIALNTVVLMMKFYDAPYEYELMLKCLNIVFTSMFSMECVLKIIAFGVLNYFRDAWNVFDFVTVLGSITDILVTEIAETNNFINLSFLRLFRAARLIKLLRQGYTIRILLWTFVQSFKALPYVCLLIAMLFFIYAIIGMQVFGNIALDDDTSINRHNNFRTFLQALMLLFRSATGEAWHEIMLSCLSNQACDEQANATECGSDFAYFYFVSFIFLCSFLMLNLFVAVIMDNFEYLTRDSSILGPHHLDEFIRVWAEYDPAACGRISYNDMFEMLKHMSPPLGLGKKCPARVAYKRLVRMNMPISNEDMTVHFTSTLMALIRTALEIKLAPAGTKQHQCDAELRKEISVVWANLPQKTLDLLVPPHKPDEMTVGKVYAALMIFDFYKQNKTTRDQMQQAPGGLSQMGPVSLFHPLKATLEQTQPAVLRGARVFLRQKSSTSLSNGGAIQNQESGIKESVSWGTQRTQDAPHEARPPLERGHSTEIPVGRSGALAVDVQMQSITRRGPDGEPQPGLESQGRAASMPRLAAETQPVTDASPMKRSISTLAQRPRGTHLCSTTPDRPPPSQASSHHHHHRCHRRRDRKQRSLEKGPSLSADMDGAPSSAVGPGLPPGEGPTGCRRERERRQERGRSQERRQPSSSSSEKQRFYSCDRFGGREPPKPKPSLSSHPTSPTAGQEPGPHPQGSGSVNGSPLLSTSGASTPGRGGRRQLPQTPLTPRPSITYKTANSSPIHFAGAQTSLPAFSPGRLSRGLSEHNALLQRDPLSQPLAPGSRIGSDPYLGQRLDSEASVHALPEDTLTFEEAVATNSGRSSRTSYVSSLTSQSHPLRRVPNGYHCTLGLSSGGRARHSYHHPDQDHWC
T2 sequence (Q02410 whole entry): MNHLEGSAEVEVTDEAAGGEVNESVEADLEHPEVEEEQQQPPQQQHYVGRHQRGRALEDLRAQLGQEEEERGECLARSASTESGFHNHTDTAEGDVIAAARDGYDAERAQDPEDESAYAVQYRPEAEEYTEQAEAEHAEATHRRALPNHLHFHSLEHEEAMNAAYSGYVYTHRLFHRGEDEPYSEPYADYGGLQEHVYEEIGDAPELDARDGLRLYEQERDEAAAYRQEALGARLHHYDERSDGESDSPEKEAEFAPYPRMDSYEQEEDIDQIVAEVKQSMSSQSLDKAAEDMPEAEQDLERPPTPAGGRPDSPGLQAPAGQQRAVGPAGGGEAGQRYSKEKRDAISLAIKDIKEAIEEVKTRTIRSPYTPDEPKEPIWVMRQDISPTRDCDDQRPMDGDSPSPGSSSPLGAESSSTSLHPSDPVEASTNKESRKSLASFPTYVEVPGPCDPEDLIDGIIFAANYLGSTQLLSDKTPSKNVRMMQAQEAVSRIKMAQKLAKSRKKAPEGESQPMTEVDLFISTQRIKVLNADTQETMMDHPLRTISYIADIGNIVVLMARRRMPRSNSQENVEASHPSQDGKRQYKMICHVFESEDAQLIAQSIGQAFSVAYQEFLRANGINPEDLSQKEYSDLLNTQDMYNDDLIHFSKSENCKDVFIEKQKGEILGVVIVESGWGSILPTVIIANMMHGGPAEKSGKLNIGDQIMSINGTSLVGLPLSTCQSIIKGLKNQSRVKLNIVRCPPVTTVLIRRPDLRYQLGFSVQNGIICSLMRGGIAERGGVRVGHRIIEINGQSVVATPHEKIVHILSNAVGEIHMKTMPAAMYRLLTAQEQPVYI

[9] = target: T2, Voltage-gated N-type calcium channel alpha-1B subunit/Amyloid beta A4 precursor protein-binding family A member 1; assay type: protein assay; remark: listed apart in the source
[10] = target: Induced myeloid leukemia cell differentiation protein Mcl-1 (Homo sapiens, UniProt Q07820); assay type: functional
Induced myeloid leukemia cell differentiation protein Mcl-1, sequence (Q07820 whole entry): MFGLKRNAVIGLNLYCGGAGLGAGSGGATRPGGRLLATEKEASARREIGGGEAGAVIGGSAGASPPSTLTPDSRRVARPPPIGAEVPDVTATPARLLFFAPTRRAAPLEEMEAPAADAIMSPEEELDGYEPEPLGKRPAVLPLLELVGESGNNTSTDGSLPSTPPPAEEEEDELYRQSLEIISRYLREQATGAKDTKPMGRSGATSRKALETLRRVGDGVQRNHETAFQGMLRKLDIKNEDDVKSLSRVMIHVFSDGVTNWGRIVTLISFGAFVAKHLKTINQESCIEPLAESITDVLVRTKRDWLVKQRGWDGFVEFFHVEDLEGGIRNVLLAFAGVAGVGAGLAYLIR

[11] = target: Short transient receptor potential channel 6 (Mus musculus, UniProt Q61143); assay: mouse TRPC6 channel blockers, concentration series – HEK293 cells, membrane potential dye, IC50, selectivity assay for selective TRPC4 inhibitor project, dose response (AID 492987); assay type: functional, cell-based
Short transient receptor potential channel 6, sequence (Q61143 whole entry): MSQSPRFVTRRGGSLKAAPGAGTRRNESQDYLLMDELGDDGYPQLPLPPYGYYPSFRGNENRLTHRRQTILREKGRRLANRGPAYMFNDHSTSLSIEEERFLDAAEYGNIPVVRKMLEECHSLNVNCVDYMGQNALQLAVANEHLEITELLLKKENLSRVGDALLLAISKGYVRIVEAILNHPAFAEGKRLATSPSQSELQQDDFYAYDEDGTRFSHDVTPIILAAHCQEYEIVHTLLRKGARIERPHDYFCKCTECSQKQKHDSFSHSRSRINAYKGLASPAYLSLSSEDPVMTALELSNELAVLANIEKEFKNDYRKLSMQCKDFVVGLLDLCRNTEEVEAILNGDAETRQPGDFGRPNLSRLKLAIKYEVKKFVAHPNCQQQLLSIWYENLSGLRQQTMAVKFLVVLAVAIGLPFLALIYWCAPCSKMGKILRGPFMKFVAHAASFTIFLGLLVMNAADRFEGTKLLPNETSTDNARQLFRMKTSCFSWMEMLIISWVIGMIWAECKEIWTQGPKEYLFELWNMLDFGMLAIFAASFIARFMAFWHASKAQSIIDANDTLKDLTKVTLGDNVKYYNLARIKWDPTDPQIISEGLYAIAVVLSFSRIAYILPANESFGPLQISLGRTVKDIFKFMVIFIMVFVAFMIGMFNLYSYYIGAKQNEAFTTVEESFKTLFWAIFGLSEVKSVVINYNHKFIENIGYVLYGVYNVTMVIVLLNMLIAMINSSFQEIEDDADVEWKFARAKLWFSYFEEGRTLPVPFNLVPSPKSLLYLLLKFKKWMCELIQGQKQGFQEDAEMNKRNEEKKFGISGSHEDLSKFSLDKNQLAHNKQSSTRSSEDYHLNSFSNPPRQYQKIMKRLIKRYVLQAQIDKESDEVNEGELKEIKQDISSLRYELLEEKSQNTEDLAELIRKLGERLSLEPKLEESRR

[12] = target: T3, Short transient receptor potential channel 4 (Mus musculus, UniProt Q9QUQ5); assay: SAR Analysis for the identification of selective inhibits of the transient receptor potential cation channel C4 (TRPC4): Automated Electrophysiology_2. [Related pubchem assays (depositor defined):AID2256]; assay type: functional
T3 sequence (Q9QUQ5 whole entry): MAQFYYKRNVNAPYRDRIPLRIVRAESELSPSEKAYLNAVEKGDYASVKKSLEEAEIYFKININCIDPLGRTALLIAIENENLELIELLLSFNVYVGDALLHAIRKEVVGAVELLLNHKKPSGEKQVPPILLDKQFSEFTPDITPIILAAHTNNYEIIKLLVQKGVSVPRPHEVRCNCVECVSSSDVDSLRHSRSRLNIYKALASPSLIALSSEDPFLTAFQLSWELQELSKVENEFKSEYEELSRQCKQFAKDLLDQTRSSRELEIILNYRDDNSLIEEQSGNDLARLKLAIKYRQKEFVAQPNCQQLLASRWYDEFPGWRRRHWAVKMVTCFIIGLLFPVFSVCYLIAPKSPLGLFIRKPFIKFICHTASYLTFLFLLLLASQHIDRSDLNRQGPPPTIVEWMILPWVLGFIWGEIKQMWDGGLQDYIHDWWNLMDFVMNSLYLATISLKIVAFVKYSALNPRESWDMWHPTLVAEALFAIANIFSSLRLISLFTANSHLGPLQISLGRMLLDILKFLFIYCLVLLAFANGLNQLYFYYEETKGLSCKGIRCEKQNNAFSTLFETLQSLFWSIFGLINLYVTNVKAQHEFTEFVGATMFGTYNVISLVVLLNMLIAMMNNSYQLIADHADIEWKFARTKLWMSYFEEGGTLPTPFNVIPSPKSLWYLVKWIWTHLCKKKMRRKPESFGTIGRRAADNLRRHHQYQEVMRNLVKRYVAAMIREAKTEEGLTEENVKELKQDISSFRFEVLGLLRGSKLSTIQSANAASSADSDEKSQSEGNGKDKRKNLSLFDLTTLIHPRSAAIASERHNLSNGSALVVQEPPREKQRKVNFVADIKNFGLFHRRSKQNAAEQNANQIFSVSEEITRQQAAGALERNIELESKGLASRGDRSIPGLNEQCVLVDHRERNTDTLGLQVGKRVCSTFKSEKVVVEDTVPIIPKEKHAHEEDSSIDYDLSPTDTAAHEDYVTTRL

[13] = target: T3, Short transient receptor potential channel 4; assay: potency of mouse TRPC4 calcium flux blockers – cell-based, HEK293 TRPC4/mu-opioid, DAMGO stimulus, Fluo-4, dose response (AID 492994); assay type: functional

Cc1ccc(NC(=O)C2C3C=CC4(CN(Cc5cccnc5)C(=O)C24)O3)cc1 (stereo not drawn)
EC50 (H4): 14 µM (active) | EC50 [1]: > 120 µM (not active) | IC50 (HEK293 [2]): > 89.2 µM (inactive) | EC50 (Insulin-degrading enzyme [3]): > 54.7 µM (inactive) | EC50 [4]: 11.9 µM (active) | EC50 (HEK293 [5]): > 55.9 µM (inactive) | EC50 (Insulin-degrading enzyme [6]): > 54.7 µM (inactive)

CC[C@H](C)/C=C(C)/C=C/C1=CC2=CC(=O)[C@]3(C)OC(=O)[C@@H](C(C)=O)[C@@H]3C2=CO1
IC50 (CHO): > 49.7 µM (inactive) | IC50 (Beta Lactamase): 8.86 µM (active) | CC50 [7]: > 40 µM (active)

Cc1cc2nc(/C=C/c3nc4cc(C)c(C)cc4[nH]3)[nH]c2cc1C
IC50 [8]: > 50 µM (inactive) | IC50 [9]: 18.5 µM (active) | IC50 (CHO): > 49.7 µM (inactive) | IC50 (Beta Lactamase): 20.9 µM (inactive) | IC50 [10]: 3.67 µM (active)

Cc1ccc2nc(N3CCCCCC3)cc(C)c2c1
IC50 [11]: 12.8 µM (active) | IC50 [12]: 0.9 µM (active) | IC50 [13]: 1.3 µM (active)
